Experimental data published in patent US9771341B2, “Piperazine carbamates and methods of making and using same” (Abide Therapeutics, Inc., priority 2015, dated 2017).

Assays:
[1] = molecular target: T1, FAAH (Mus musculus, UniProt O08914); assay: In vitro competitive activity-based protein profiling (mouse), FAAH; format: biochemical; conditions: for inhibition at 1 µM: mouse proteome, in vitro; for IC50: mouse brain membrane fraction or cell lysates, 30 min preincubation at 37° C, FP-Rh probe
T1 construct: Proteomes (mouse brain membrane fraction or cell lysates); from tissue; host or cells: mouse brain membrane fraction (or unspecified cell lysates)
T1 sequence (O08914 1-579): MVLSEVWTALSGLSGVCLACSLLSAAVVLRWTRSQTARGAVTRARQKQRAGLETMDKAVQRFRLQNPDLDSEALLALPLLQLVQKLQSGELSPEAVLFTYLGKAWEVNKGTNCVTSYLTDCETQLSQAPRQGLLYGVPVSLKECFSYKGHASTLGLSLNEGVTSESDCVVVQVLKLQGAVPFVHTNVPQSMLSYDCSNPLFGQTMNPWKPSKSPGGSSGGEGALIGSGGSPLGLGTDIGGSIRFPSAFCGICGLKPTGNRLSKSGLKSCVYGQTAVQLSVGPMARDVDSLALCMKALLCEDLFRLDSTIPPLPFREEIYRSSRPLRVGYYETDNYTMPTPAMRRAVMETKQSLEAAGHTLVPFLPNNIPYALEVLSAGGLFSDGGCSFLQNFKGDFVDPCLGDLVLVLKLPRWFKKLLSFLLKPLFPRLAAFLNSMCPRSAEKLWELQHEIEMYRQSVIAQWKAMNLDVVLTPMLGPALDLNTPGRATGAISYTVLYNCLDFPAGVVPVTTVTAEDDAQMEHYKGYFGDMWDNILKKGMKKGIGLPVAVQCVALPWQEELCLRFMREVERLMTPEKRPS
How it was run: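 Competitive ABPP: inhibitor exposure (30 min, 37° C) of mouse brain membrane or lysate proteome at 1.0 mg/mL, then labelling with FP-Rh for another 30 min. Activity quantified by in-gel fluorescence of FAAH bands after SDS-PAGE.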

[2] = molecular target: T2, MAGL (Mus musculus, UniProt O35678); assay: In vitro competitive activity-based protein profiling (mouse), MAGL; format: biochemical; conditions: for inhibition at 1 µM: mouse proteome, in vitro, read-out: % Inhibition at 1 μM MAGL; for IC50: mouse brain membrane fraction or cell lysates, 30 min preincubation at 37° C, FP-Rh probe
T2 construct: Proteomes (mouse brain membrane fraction or cell lysates); from tissue; host or cells: mouse brain membrane fraction (or unspecified cell lysates)
T2 sequence (O35678 1-303): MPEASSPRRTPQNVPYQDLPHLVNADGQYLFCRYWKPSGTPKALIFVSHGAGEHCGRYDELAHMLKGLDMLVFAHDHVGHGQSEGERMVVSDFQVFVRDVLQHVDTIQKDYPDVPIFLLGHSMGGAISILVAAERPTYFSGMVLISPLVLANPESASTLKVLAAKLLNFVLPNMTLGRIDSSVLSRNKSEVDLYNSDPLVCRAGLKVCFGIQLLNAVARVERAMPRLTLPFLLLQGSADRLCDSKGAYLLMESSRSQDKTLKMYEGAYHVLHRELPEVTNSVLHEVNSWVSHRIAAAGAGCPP
Experimental: (§1) In Vitro Competitive Activity-Based Protein Profiling (Mouse).
(§2) Proteomes (mouse brain membrane fraction or cell lysates) (50 μL, 1.0 mg/mL total protein concentration) were preincubated with varying concentrations of inhibitors at 37° C. After 30 min, FP-Rh (1.0 μL, 50 μM in DMSO) was added and the mixture was incubated for another 30 min at 37° C. Reactions were quenched with SDS loading buffer (50 μL-4×) and run on SDS-PAGE.

[3] = molecular target: T1, FAAH; assay: Mouse brain proteomes from inhibitor treated mice, FAAH; format: in vivo; conditions: 5 mg/kg oral gavage, C57Bl/6J mice, brain proteome 4 h after administration
Experimental: (§3) Preparation of Mouse Brain Proteomes from Inhibitor Treated Mice.
Inhibitors were administered to wild-type C57Bl/6J by oral gavage in a vehicle of polyethylene glycol. Each animal was sacrificed 4 h following administration and brain proteomes were prepared and analyzed according to previously established methods (See Niphakis, M. J., et al. (2011) ACS Chem. Neurosci. and Long, J. Z., et al. Nat. Chem. Biol. 5:37-44)

[4] = molecular target: T2, MAGL; assay: Mouse brain proteomes from inhibitor treated mice, MAGL; format: in vivo; conditions: 5 mg/kg oral gavage, C57Bl/6J mice, brain proteome 4 h after administration
Experimental: as §3
(§4) Inhibitors were administered to wild-type C57Bl/6J by oral gavage in a vehicle of polyethylene glycol.

[5] = molecular target: T3, ABHD6 (Mus musculus, UniProt Q8R2Y0); assay: Mouse brain proteomes from inhibitor treated mice, ABHD6; format: in vivo; conditions: 5 mg/kg oral gavage, C57Bl/6J mice, brain proteome 4 h after administration
T3 construct: Proteomes (mouse brain membrane fraction or cell lysates); from tissue; host or cells: mouse brain membrane fraction (or unspecified cell lysates)
T3 sequence (Q8R2Y0 1-336): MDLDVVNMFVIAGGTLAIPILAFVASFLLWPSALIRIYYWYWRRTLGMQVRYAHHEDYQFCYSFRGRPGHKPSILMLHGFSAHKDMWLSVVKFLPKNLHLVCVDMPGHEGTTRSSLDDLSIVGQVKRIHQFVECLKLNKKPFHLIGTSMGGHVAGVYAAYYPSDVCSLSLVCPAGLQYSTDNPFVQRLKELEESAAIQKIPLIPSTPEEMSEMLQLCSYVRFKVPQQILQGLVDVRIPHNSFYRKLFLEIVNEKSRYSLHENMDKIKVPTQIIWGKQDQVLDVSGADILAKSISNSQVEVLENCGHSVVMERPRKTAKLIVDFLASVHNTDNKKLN
Experimental: as §3, §4

[6] = molecular target: T3, ABHD6; assay: In vitro competitive activity-based protein profiling (mouse), ABHD6; format: biochemical; conditions: for inhibition at 1 µM: mouse proteome, in vitro, read-out: % Inhibition at 1 μM ABHD6; for IC50: mouse brain membrane fraction or cell lysates, 30 min preincubation at 37° C, FP-Rh probe
Experimental: as §1, §2

inhibition at 1 µM [1] | IC50 [1] | inhibition at 1 µM [2] | IC50 [2] | inhibition at 5 mg/kg [3] | inhibition at 5 mg/kg [4] | inhibition at 5 mg/kg [5] | inhibition at 1 µM [6] | IC50 [6] | Structure (SMILES)
< 25% | > 1000 nM | > 75% | < 100 nM | < 25% | > 75% | < 25% | < 25% | > 1000 nM | O=C(OC(C(F)(F)F)C(F)(F)F)N1CCN(Cc2ccc(C(F)(F)F)cc2N2CC[C@H](CF)C2)CC1 [Example 54, 1,1,1,3,3,3-hexafluoropropan-2-yl (S)-4-(2-(3-(fluoromethyl)pyrrolidin-1-yl)-4-(trifluoromethyl)benzyl)piperazine-1-carboxylate]
< 25% | > 1000 nM | > 75% | < 100 nM | < 25% | > 75% | < 25% | < 25% | > 1000 nM | O=C(OC(C(F)(F)F)C(F)(F)F)N1CCN(Cc2cccc(Cl)c2N2CC[C@H](CF)C2)CC1 [Example 55, 1,1,1,3,3,3-hexafluoropropan-2-yl (S)-4-(3-chloro-2-(3-(fluoromethyl)pyrrolidin-1-yl)benzyl)piperazine-1-carboxylate]
< 25% | > 1000 nM | > 75% | < 100 nM | < 25% | > 75% | < 25% | < 25% | > 1000 nM | Cc1cccc(CN2CCN(C(=O)OC(C(F)(F)F)C(F)(F)F)CC2)c1N1CC[C@H](CF)C1 [Example 56, 1,1,1,3,3,3-hexafluoropropan-2-yl (S)-4-(2-(3-(fluoromethyl)pyrrolidin-1-yl)-3-methylbenzyl)piperazine-1-carboxylate]
< 25% | > 1000 nM | > 75% | < 100 nM | < 25% | > 75% | < 25% | < 25% | > 1000 nM | O=C(OC(C(F)(F)F)C(F)(F)F)N1CCN(Cc2cccc(Cl)c2N2CC3CCC(C2)O3)CC1 [Example 57, 1,1,1,3,3,3-hexafluoropropan-2-yl 4-(2-(8-oxa-3-azabicyclo[3.2.1]octan-3-yl)-3-chlorobenzyl)piperazine-1-carboxylate]
< 25% | > 1000 nM | > 75% | < 100 nM | < 25% | > 75% | < 25% | < 25% | > 1000 nM | CS(=O)(=O)N[C@@H]1CCN(c2cc(C(F)(F)F)ccc2CN2CCN(C(=O)OC(C(F)(F)F)C(F)(F)F)CC2)C1 [Example 60, 1,1,1,3,3,3-hexafluoropropan-2-yl (R)-4-(2-(3-(methylsulfonamido)pyrrolidin-1-yl)-4-(trifluoromethyl)benzyl)piperazine-1-carboxylate]
< 25% | > 1000 nM | > 75% | < 100 nM | < 25% | > 75% | < 25% | < 25% | > 1000 nM | CS(=O)(=O)N[C@H]1CCN(c2cc(C(F)(F)F)ccc2CN2CCN(C(=O)OC(C(F)(F)F)C(F)(F)F)CC2)C1 [Example 61, 1,1,1,3,3,3-hexafluoropropan-2-yl (S)-4-(2-(3-(methylsulfonamido)pyrrolidin-1-yl)-4-(trifluoromethyl)benzyl)piperazine-1-carboxylate]
< 25% | > 1000 nM | > 75% | < 100 nM | < 25% | < 25% | < 25% | 25 to 75% | > 1000 nM | O=C(OC(C(F)(F)F)C(F)(F)F)N1CCN(Cc2ccc(C(F)(F)F)cc2N2CC3CN(C4CC4)CC3C2)CC1 (stereo not drawn) [Example 65, 1,1,1,3,3,3-hexafluoropropan-2-yl 4-(2-(5-cyclopropylhexahydropyrrolo[3,4-c]pyrrol-2(1H)-yl)-4-(trifluoromethyl)benzyl)piperazine-1-carboxylate]
< 25% | > 1000 nM | > 75% | < 100 nM | < 25% | > 75% | < 25% | < 25% | > 1000 nM | O=C(OC(C(F)(F)F)C(F)(F)F)N1CCN(Cc2ccc(C(F)(F)F)cc2N2CCCC2CO)CC1 (stereo not drawn) [Example 71, 1,1,1,3,3,3-hexafluoropropan-2-yl 4-(2-(2-(hydroxymethyl)pyrrolidin-1-yl)-4-(trifluoromethyl)benzyl)piperazine-1-carboxylate]
< 25% | > 1000 nM | > 75% | < 100 nM | < 25% | 25 to 75% | < 25% | < 25% | > 1000 nM | O=C(OC(C(F)(F)F)C(F)(F)F)N1CCN(Cc2ccc(C(F)(F)F)cc2N2CCC(CO)CC2)CC1 [Example 74, 1,1,1,3,3,3-hexafluoropropan-2-yl 4-(2-(4-(hydroxymethyl)piperidin-1-yl)-4-(trifluoromethyl)benzyl)piperazine-1-carboxylate]
< 25% | > 1000 nM | > 75% | < 100 nM | < 25% | < 25% | < 25% | < 25% | > 1000 nM | O=C(O)C1CN(c2cc(C(F)(F)F)ccc2CN2CCN(C(=O)OC(C(F)(F)F)C(F)(F)F)CC2)CCO1 (stereo not drawn) [Example 75, 4-(2-((4-(((1,1,1,3,3,3-hexafluoropropan-2-yl)oxy)carbonyl)piperazin-1-yl)methyl)-5-(trifluoromethyl)phenyl)morpholine-2-carboxylic acid]
< 25% | > 1000 nM | > 75% | 100 to 1000 nM | < 25% | > 75% | > 75% | 25 to 75% | 100 to 1000 nM | O=C(O)[C@@H]1CCCN1c1cc(CN2CCN(C(=O)OC(C(F)(F)F)C(F)(F)F)CC2)cc(C(F)(F)F)c1 [Example 86, (3-((4-(((1,1,1,3,3,3-hexafluoropropan-2-yl)oxy)carbonyl)piperazin-1-yl)methyl)-5-(trifluoromethyl)phenyl)proline]
